# Experimental data from patent EP4566586A1, “SKIN-CARE PRODUCT COMPOSITION AND PHARMACEUTICAL COMPOSITION COMPRISING SULFONATED CALIXARENE, AND USE OF SULFONATED CALIXARENE” (Calix Biotechnology (Hangzhou) Co., Ltd, priority 2022, dated 2024).
# Marks after values point to notes of the source that are not given here.
# Key:
# [1] = Solubilization of Vitamin A by sulfonated calixarene (UV absorption); type: physicochemical
# Experimental: Testing Method: UV Absorption Spectroscopy.
# In 3 mL of deionized water, 5 mg (an excess amount) of Vitamin A was added, and the mixture was shaken overnight. The mixture was then centrifuged to collect the supernatant, and the UV Absorption Curve of the supernatant was measured (Figure 5).
# Excess Va was added to each of these three solutions at a concentration of 5 mg/mL and shaken on a shaker to enhance the solubility of Va. After 24 hours, each group of solution was diluted 40-fold for UV absorption wavelength measurement. Meanwhile, Va was dissolved in methanol solution to prepare a 4 mM Va methanol stock solution. The Va methanol stock solution was then diluted in water to prepare a 5 µM Va standard solution with methanol as a solvent aid, which was used for UV absorption wavelength measurement.
# An excess amount of Va was added to each of these solutions at 5 mg/mL, and the solutions were agitated on a shaking table to enhance the solubility of Va. After 24 hours, each group of solutions was diluted by an appropriate multiple (to fit the standard working curve described below) and used for the measurement of UV absorbance intensity.
# A standard working curve for Va was prepared. A methanol solution containing 4 mM of Va was prepared. […] Subsequently, the UV absorbance intensities of these six groups of solutions with different concentrations of Va were measured, and a standard working curve was prepared.
# [2] = UV titration, binding constants between SC8A-12C and skincare active substances; conditions: 25°C, 1:1 host-guest direct binding model; for Binding constants Ka: host SC8A-12C, active substance 15 µM in deionized water
# Experimental: (§1) Test Method: UV titration.
# Test Equipment: A Japan Shimadzu UV-3600 UV-Visible Spectrophotometer, equipped with a temperature control module (model: PTC-348WI), was used. The samples were tested using Shimadzu's quartz cuvettes with an optical path length of 10 mm.
# (§2) Reagents: Vitamin A (Va) was purchased from Shanghai Macklin Biochemical Technology Co., Ltd, retinoic acid was purchased from Heowns Biochem Technologies, LLC, Tianjin, and other skincare active substances were commercially available products.
# (§3) Va was dissolved in methanol to a concentration of 2 mM. During the test, the Va stock solution was added to a cuvette and adjusted to a volume of 3 mL with deionized water, resulting in a concentration of 10 µM. […] The binding constant Kα for the host-guest inclusion was determined.
# During the test, the retinoic acid stock solution was added to a cuvette and adjusted to a volume of 3 mL with deionized water, resulting in a concentration of 15 µM.
# During the test, the stock solution of the active substance was added to a cuvette and adjusted to a volume of 3 mL with deionized water, resulting in a concentration of 15 µM. […] The UV titration data were fitted using a 1:1 host-guest direct binding model to determine the binding constant Kα for the host-guest inclusion.
# physchem = conditions: water
# Experimental: Test Method: UV Absorption Spectroscopy.
# The UV absorption intensities were measured, and a standard working curve was prepared. […] The mixtures were shaken overnight and then centrifuged to collect the supernatant for UV absorption curve detection.
# [3] = Solubilization of Retinoic acid by sulfonated calixarene (UV absorption); type: physicochemical; conditions: 5 mg retinoic acid in 3 mL deionized water, shaken overnight, supernatant UV
# Experimental: Testing Equipment: A Japan Shimadzu UV-3600 UV-Visible Spectrophotometer, equipped with a temperature control module (model: PTC-348WI), was used. The samples were tested using Shimadzu's quartz cuvettes with an optical path length of 10 mm.
# Excess retinoic acid was added to each of the three groups of solutions at a concentration of 5 mg/mL, followed by ultrasonic treatment to enhance the solubility of retinoic acid. After 20 mins, each group of solution was diluted 10-fold for UV absorption wavelength measurement. At the same time, 5 mg (an excess amount) of retinoic acid was added to 3 mL of deionized water, the mixture was shaken overnight, centrifuged to obtain the supernatant. […] Retinoic acid was dissolved in methanol solution to prepare a stock solution of 4 mM retinoic acid in methanol. After 20 mins, the stock solution of retinoic acid in methanol was diluted in water to prepare a retinoic acid standard solution with an appropriate concentration, for UV absorption wavelength detection. […]
# A standard working curve for retinoic acid was prepared. […] Subsequently, the UV absorbance intensities of these six groups of solutions with different concentrations of retinoic acid were measured, and a standard working curve was prepared.
# [4] = Skin permeability test of retinoic acid (transdermal diffuser); type: in vitro ADME; conditions: ointment base (cream), retinoic acid 1% (w/w), pig skin, 37°C, 24 hours
# Experimental: Testing Method: Skin Permeability Test
# Testing Equipment: TP-6 Intelligent Transdermal Diffuser (Tianjin Jingtuo Instrument Technology Co., Ltd.)
# Undamaged sections were cut into uniform thickness pieces, approximately 2 cm × 2 cm in size, wrapped in plastic wrap, and stored at -20°C for later use.
# The concentration of retinoic acid in the inclusion complex was determined by UV detection, and subsequently diluted to 0.1% (w/w). Additionally, 3 mg of retinoic acid was weighed and mixed with 297 mg of cream in a mortar. The mixture was thoroughly ground to dissolve retinoic acid in the cream, resulting in a retinoic acid concentration of 1% (w/w).
# The skin was placed between the diffusion and receptor compartments after thawing. The receptor compartment was filled with the receptor solution (deionized water), and all air bubbles were expelled. The receptor compartment was maintained at 37°C in a circulating water bath throughout the experiment. The transdermal diffuser was activated, with a magnetic stirring speed set at 300 r·min^-1. After 24 hours, the solutions from the receptor compartments of each group were collected for UV detection.
# [5] = UV titration, binding constants between SC8A-12C and skincare active substances; conditions: host SC8A-12C, active substance 15 µM in deionized water, 25°C, 1:1 host-guest direct binding model
# Experimental: as §1, §2
# as §3, with “The change in UV absorption intensity was recorded after each addition of the SC8A-12C stock solution. […] The” for “The”
# SC8A-12C stock solution and retinoic acid stock solution were first prepared. […] During the test, the retinoic acid stock solution was added to a cuvette and adjusted to a volume of 3 mL with deionized water, resulting in a concentration of 15 µM. […] The change in UV absorption intensity was recorded after each addition of the SC8A-12C stock solution.
# During the test, the stock solution of the active substance was added to a cuvette and adjusted to a volume of 3 mL with deionized water, resulting in a concentration of 15 µM. […] The change in UV absorption intensity was recorded after each addition of the SC8A-12C stock solution. […]
# [6] = Stabilization of Va by SC8A-12C (UV-visible spectrophotometry); type: physicochemical; conditions: free Va, methanol as a solvent aid, stored for two days in the dark
# Experimental: Testing Method: UV-Visible Spectrophotometry.
# Va was dissolved in methanol to prepare a Va methanol solution with a concentration of 4 mM, which was then kept in the dark for two days. The UV absorptions of both the freshly prepared and the two-day stored Va methanol solutions were tested. During the testing, the Va methanol solution was first added to a cuvette, and deionized water was used to adjust the volume to 3 mL, achieving a final concentration of Va at 10 µM.
# [7] = Skin permeability test of Va (transdermal diffuser); type: in vitro ADME; conditions: Va 0.4% (w/w), pig skin, 37°C, 55 hours
# Experimental: Undamaged sections were cut into uniform thickness pieces approximately 2 cm × 2 cm in size, wrapped in plastic wrap, and stored at -20°C for later use. 0.8 mg of Va and 200 mg of skincare cream (ointment base) were weighed and added to a mortar. The mixture was thoroughly ground to dissolve Va in the skincare cream, resulting in a Va concentration of 0.4% (w/w). Subsequently, 0.8 mg of Va was weighed and dispersed in 200 µL of water by thoroughly shaking to prepare a suspension of Va (water base), with a Va concentration of 0.4% (w/w). […] The concentration of Va in the inclusion complex was also 0.4% (w/w). The skin was placed between the diffusion and receptor compartments after thawing. The receptor compartment was filled with the receptor solution (deionized water), and all air bubbles were expelled. The receptor compartment was maintained at 37°C in a circulating water bath throughout the experiment. The transdermal diffuser was activated, with a magnetic stirring speed set at 300 r·min^-1. After 55 hours, the solutions from the receptor compartments of each group were collected for UV detection.
Compound,Binding constants Ka [2],also measured
"O=S(=O)(O)c1cc2c(O)c(c1)Cc1cc(S(=O)(=O)O)cc(c1O)Cc1cc(S(=O)(=O)O)cc(c1O)Cc1cc(S(=O)(=O)O)cc(c1O)C2 [SC4A, Sulfonated calix[4]arene]",–,solubilization of Va [1]: failed to solubilize Va
"O=S(=O)(O)c1cc2c(O)c(c1)Cc1cc(S(=O)(=O)O)cc(c1O)Cc1cc(S(=O)(=O)O)cc(c1O)Cc1cc(S(=O)(=O)O)cc(c1O)Cc1cc(S(=O)(=O)O)cc(c1O)Cc1cc(S(=O)(=O)O)cc(c1O)Cc1cc(S(=O)(=O)O)cc(c1O)Cc1cc(S(=O)(=O)O)cc(c1O)C2 [SC8A, Sulfonated calix[8]arene]",–,solubilization of Va [1]: failed to solubilize Va
O=C1O[C@H]([C@@H](O)CO)C(O)=C1O[C@H]1O[C@H](CO)[C@@H](O)[C@H](O)[C@H]1O [ascorbyl glucoside],5.2±0.3×10^3 M^-1,–
O=C(O)CCCCCCCC(=O)O [azelaic acid],5.2±0.1×10^3 M^-1,–
Cn1c(=O)c2c(ncn2C)n(C)c1=O [caffeine],3.2±0.8×10^3 M^-1,–
CC(C)CCC[C@@H](C)[C@H]1CC[C@H]2[C@@H]3CC=C4C[C@@H](O)CC[C@]4(C)[C@H]3CC[C@]12C [cholesterol],2.3±0.5×10^5 M^-1,–
CCCCCCCCCCO[C@@H]1O[C@H](CO)[C@@H](O)[C@H](O)[C@H]1O [decyl glucoside],3.3±0.5×10^4 M^-1,–
CCCCCCOC(=O)c1ccccc1C(=O)c1ccc(N(CC)CC)cc1O [diethylamino hydroxybenzoyl hexyl benzoate],3.8±0.3×10^3 M^-1,–
CC(c1ccccc1)c1ccc(O)cc1O (stereo not shown) [phenylethyl resorcinol],–,solubility (physchem): 4900 µg/mL
CC1=C(/C=C/C(C)=C/C=C/C(C)=C/C(=O)O)C(C)(C)CCC1 [retinoic acid],–,solubility of retinoic acid in water [3]: hardly soluble; retinoic acid in the receptor compartment (UV absorption peak) [4]: no absorption peak of retinoic acid was detected
ceramides,6.5±0.2×10^3 M^-1,–
palmitoyl tripeptide-5,–,Binding constants Ka [5]: 6.3±0.6×10^3 M^-1
α-bisabolol,2.8±0.6×10^4 M^-1,–

# Now from value to compound, other results behind:
Binding constants Ka [2],Compound,also measured
4.3±0.5×10^3 M^-1,OC[C@H]1O[C@@H](Oc2ccc(O)cc2)[C@H](O)[C@@H](O)[C@@H]1O [arbutin],–
2.9±0.2×10^3 M^-1,Nc1ccc(C(=O)OCC(O)CO)cc1 (stereo not shown) [glyceryl p-aminobenzoate],–
5.3±0.4×10^3 M^-1,OC[C@@H](O)[C@@H](O)[C@H](O)[C@@H](O)CO [sorbitol],–
0.8±0.1×10^4 M^-1,cocamidopropyl betaine,–
2.6±0.3×10^3 M^-1,proanthocyanidins,–
2.5±0.5×10^3 M^-1,sphingolipids,–
4.4±0.5×10^5 M^-1,vitamin A,"binding constant Kα of SC8A-12C ([2]; guest Va 10 µM (317 nm) or retinoic acid 15 µM): (4.0 ± 0.5) ×10^5 M^-1; solubility of Va in water ([1]; 5 mg Va in 3 mL deionized water, shaken overnight, supernatant UV): almost insoluble; [dissolved Va] ([1]; [SC8A-12C] 0 µM, Not detected under UV): 0* µM; UV absorption of the Va aqueous solution after storage [6]: significantly decreased; Va in the receptor compartment ([7]; ointment base): no Va was detected; permeability of Va ([7]; water base (suspension)): not good enough"
2.6±0.4×10^3 M^-1,vitamin E,–
